Experimental data from publication PMC5365648, “Pharmacokinetics of the Novel Echinocandin CD101 in Multiple Animal Species” (Antimicrobial Agents and Chemotherapy, 2017).
Starred links: 1 amine or outer side, 2 acyl side, 3 side chain; linkers in the order of their positions; H or OH if unused. Positions of bridges follow the written chain, without caps; N, C: chain ends. Non-standard residues stand in square brackets, D forms with d. Residues, ends and D or L forms follow the SMILES beside them. *: point of attachment. pTerphenylCO(4''-OnC5H11) = CCCCCOc1ccc(-c2ccc(-c3ccc(C(=O)*)cc3)cc2)cc1; Orn(4R-OH,5R-OH) = O=C([C@H](C[C@@H](O)[C@@H](O)N[*:3])N[*:1])[*:2]; hTyr(3S-OH,4S-OH) = N[C@H](C(=O)O)[C@H](O)[C@@H](O)c1ccc(O)cc1; Pro(3S-OH,4S-Me) = C[C@H]1CN[C@H](C(=O)O)[C@H]1O; Hyp = O=C(O)[C@@H]1C[C@@H](O)CN1

Legend:
[1] = ref [13]; cited from earlier work
Text: In the case of brain concentrations, there was little difference across all the collection intervals. Given the relatively low concentrations and small differences across times, measured concentrations may reflect contamination from residual whole blood during the collec ...

[2] = Mouse pharmacokinetics, i.v. bolus; conditions: in vivo, iv, male ICR (CD-1) mice, single 1 mg/kg slow i.v. bolus, plasma, LC-MS/MS, noncompartmental from mean profile, n = 3/time point
Experimental: A single 1-mg/kg dose of CD101 or anidulafungin was administered by slow i.v. bolus (∼2 min) to male ICR (CD-1) mice (n = 3/group/time point). Blood samples (via cardiac puncture) were collected for plasma processing predose and at 0.083 (5 min), 0.5, 1, 4, 8, 24, 48, and 72 h postdose. PK profiles were generated based on mean results from the three animals sampled at each time point. In another study, a single 1-, 4-, or 16-mg/kg dose of CD101 was administered by i.p. injection to female ICR (CD-1) mice (n = 3/time point/dose), and blood samples (via cardiac puncture) were drawn for plasma processing at 1, 3, 6, 12, 24, 48, 72, and 96 h postdose.
(§1) For each of the pharmacokinetic studies, whole-blood samples (K3EDTA as anticoagulant) were collected and centrifuged within 30 min of collection. The resulting plasma was harvested and stored at −20°C until analysis. Tissue samples were homogenized by a bead-based homogenizer following the addition of deionized water to excised tissue in a 2:1 (vol/wt) ratio and stored at −20°C until analysis. Prior to analysis, plasma or homogenized tissue samples were quenched with acetonitrile (3:1, acetonitrile-plasma or tissue ratio) containing an appropriate internal standard (isotopically labeled d9-CD101 [mouse and rat] or a structural analog [dog, monkey, and chimpanzee]). Plasma and tissue homogenate concentrations (quantified against calibration standards processed the same way) were determined by reverse-phase, gradient liquid chromatography with tandem mass spectrometric detection (LC-MS/MS) using an AB-SCIEX API 3200Q/4000 mass spectrometry system. Calibration standard ranges were the following: 0.400 (lower limit of quantitation, [LLOQ]) to 200 μg/ml (CD101, mouse), 0.040 (LLOQ) to 10 μg/ml (anidulafungin, mouse), 0.002 (LLOQ) to 10 μg/ml (CD101, rat), 0.005 (LLOQ) to 10 μg/ml (anidulafungin, rat), 0.050 (LLOQ) to 10 μg/ml (CD101, dog), 0.020 (LLOQ) to 10 μg/ml (anidulafungin, dog), 0.010 (LLOQ) to 10 μg/ml (CD101, monkey), 0.001 (LLOQ) to 10 μg/ml (anidulafungin, monkey), 0.015 (LLOQ) to 10 μg/ml (CD101, chimpanzee), and 0.015 (LLOQ) to 10 μg/ml (anidulafungin, chimpanzee). When necessary, dilutions with blank matrix were made for samples that quantified above the upper limit of quantitation. The methods used in the analysis were qualified as fit for purpose: calibration standards were matrix matched with the exception that human plasma calibration standards were used to analyze chimpanzee plasma samples due to the rarity of blank chimpanzee plasma, and, for each analytical batch, triplicate calibration standards were included at the beginning, approximately in the middle, and at the end of the batch. Following analysis, quantitation was carried out by a calibration curve comprising the analyte/internal standard area ratio versus concentration. Analytical batch acceptance followed the general guidance that triplicate standards/quality controls be within ±20% for accuracy (percentage of nominal concentration) and ≤20% for precision (percent coefficient of variation).
(§2) Pharmacokinetic parameters were calculated by noncompartmental analysis using Phoenix WinNonlin (version 6.3; Pharsight, Mountain View, CA) from either individual or mean (mouse) concentration-time profiles. An unpaired t test was used to compare mean exposures from male and female rats.

[3] = radiolabeled drug, bile duct-cannulated rats, ref [14], cited from earlier work
Experimental: In that study, which utilized radiolabeled anidulafungin in bile duct-cannulated rats, 94.8% of the radioactive dose was accounted for through 168 h (or 7 days). […] In a similar study of CD101 conducted with nonradiolabeled material, no biotransformati ...

[4] = for CD101 the effective half-life (covers the majority of the AUC), ref [10]; cited from earlier work
Experimental: The half-life of CD101 in human is about 3-fold longer (about 90 h) than that of anidulafungin (about 30 h) ([10]). It should be noted that 90 h is the effective half-life of CD101 (i.e., the half-life that covers the majority of the AUC), with a longer, later-phase half-life evident at lower concentration ...

[5] = Cynomolgus monkey pharmacokinetics, i.v. bolus; set-up: species or system cynomolgus monkeys; conditions: in vivo, iv, cynomolgus monkeys, single 2.8 mg/kg slow i.v. bolus, plasma, LC-MS/MS, n = 3
Experimental: A single dose of 2.13 mg/kg CD101 or 2.8 mg/kg anidulafungin was administered by slow i.v. bolus (∼10 min) to cynomolgus monkeys (n = 3/group), and blood samples (via peripheral vein) were drawn for plasma processing at 0.167, 0.5, 1, 3, 8, 12, 24, 48, and 72 h postdose.
as §1, §2

[6] = Chimpanzee pharmacokinetics, i.v. infusion; format: in vivo, chimpanzees; conditions: in vivo, iv, female chimpanzees, single 1 mg/kg i.v. infusion (1 h), plasma, LC-MS/MS, noncompartmental, n = 2
Experimental: A single 1-mg/kg dose of CD101 or anidulafungin was administered by i.v. infusion (1 h) to female chimpanzees (n = 2/group), and blood samples (via peripheral vein) were drawn for plasma processing at the midpoint of infusion, at the end of infusion, at 2, 4, 8, 12, 24, 48, and 72 h postdose, and on days 5, 7, and 10 postdose.
as §1, §2

caspofungin
Tissue/plasma AUC ratio, kidney [1]: 5.5 | Tissue/plasma AUC ratio, liver [1]: 10.2 | Tissue/plasma AUC ratio, lung [1]: 1.2

micafungin
Tissue/plasma AUC ratio, kidney [1]: 3.2 | Tissue/plasma AUC ratio, liver [1]: 7.8 | Tissue/plasma AUC ratio, lung [1]: 3.6

CCCCCOc1ccc(-c2ccc(-c3ccc(C(=O)N[C@H]4C[C@@H](O)[C@@H](O)NC(=O)[C@@H]5[C@@H](O)[C@@H](C)CN5C(=O)[C@H]([C@@H](C)O)NC(=O)[C@H]([C@H](O)[C@@H](O)c5ccc(O)cc5)NC(=O)[C@@H]5C[C@@H](O)CN5C(=O)[C@H]([C@@H](C)O)NC4=O)cc3)cc2)cc1 [anidulafungin] ({pTerphenylCO(4''-OnC5H11)}-[Orn(4R-OH,5R-OH)]T[Hyp][hTyr(3S-OH,4S-OH)]T[Pro(3S-OH,4S-Me)]; lactam 1-C)
half-life [2]: 19 h | clearance ([2]; read-out: CL (clearance)): 0.21 mL/min/kg | Tissue/plasma AUC ratio, kidney [1]: 10.7 | Tissue/plasma AUC ratio, liver [1]: 12.4 | Tissue/plasma AUC ratio, lung [1]: 10.4 | radioactive dose accounted for ([3]; through 168 h (7 days)): 94.8% | drug-derived radioactivity recovered in bile, % of dose ([3]; through 168 h): 33.9% | drug-derived radioactivity recovered in carcass, % of dose ([3]; through 168 h): 40.4% | drug-derived radioactivity recovered in feces, % of dose ([3]; through 168 h): 17.1% | radioactivity recovered in urine ([3]; through 168 h): 2.94% | half-life in human [4]: about 30 h | half-life [5]: 8 h | half-life [6]: 30 h | clearance ([6]; read-out: CL (clearance)): 0.42 mL/min/kg
